The record followed here is US5902812A, “Pharmaceutical piperazine compounds” (Xenova Limited, priority 1994, dated 1999).

Where a name gives a salt, the structure may show the parent alone. Read-outs that look alike come from different tables or passages of the source.

This experiment has as its target PAI-1 (Homo sapiens, UniProt P05121). Description: biochemical. The conditions noted are these: for IC50: PAI chromogenic substrate assay, read-out: IC50.
[1] abbreviates: 20 μM (third part of Table 1), read-out: Degree of inhibition in PAI chromogenic substrate assay.
[2] abbreviates: 100 μM (third part of Table 1), read-out: Degree of inhibition in PAI chromogenic substrate assay.
[3] abbreviates: 6.25 μM, read-out: Degree of inhibition in PAI chromogenic substrate assay.
Setting [4] is: 50 μM, read-out: Degree of inhibition in PAI chromogenic substrate assay.
Setting [5] is: 100 μM, read-out: Degree of inhibition in PAI chromogenic substrate assay.

Sequence of PAI-1 (P05121 24-402): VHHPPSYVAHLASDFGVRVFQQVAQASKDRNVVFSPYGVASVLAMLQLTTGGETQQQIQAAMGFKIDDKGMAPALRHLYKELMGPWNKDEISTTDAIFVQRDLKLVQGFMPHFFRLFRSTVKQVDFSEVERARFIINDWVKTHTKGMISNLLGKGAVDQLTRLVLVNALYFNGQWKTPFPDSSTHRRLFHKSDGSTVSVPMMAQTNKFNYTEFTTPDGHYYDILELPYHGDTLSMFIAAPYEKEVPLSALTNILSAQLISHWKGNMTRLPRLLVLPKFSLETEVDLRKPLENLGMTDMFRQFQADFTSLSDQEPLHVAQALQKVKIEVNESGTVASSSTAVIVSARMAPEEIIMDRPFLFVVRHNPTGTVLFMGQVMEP
Procedure: In this assay, a compound is incubated with PAI-1 prior to addition to the tPA assay system. Inhibition of PAI-1 results in the production of plasmin from plasminogen. In turn, plasmin cleaves the chromogenic substrate S2251 (Kabi Vitrum) producing pNA (p-nitroaniline) which is detected spectrophotometrically at 405 nm (K. Nilsson et al, Fibrinolysis (1987) 1, 163-168).
Compounds of formula (A) were tested in a PAI chromogenic substrate assay. In the assay (K.Nilsson, Fibrinolysis (1987) 1, 163-168) each compound was incubated with PAI-1 prior to addition to the tPA assay system. […] In turn, the plasmin cleaved the chromogenic substrate S2251 (Kabi-Vitrum) producing pNA (p-nitroaniline) which was detected spectrophotometrically at 405 nm.

As to `Cc1cccc(/C=c2\[nH]c(=O)/c(=C/c3ccc(OCCCN(C)C)cc3)[nH]c2=O)c1` [Compound 5187, (3Z,6Z)-6-(4-(3-Dimethylaminopropoxy)benzylidene)-3-(3-methylbenzylidene)-2,5-piperazinedione], the half-maximal inhibitory concentration (IC50) was determined as 100 µM. Besides, under setting [1], the inhibition at 20 µM is 10%. Besides, under setting [2], the inhibition at 100 µM was determined as 58%.
For the compound `CCCCOc1ccc(/C=c2\[nH]c(=O)/c(=C/c3ccc(OCCCN(C)C)cc3)[nH]c2=O)cc1` [Compound 1920, (3Z,6Z)-3-(4-Butoxybenzylidene)-6-(4-(3-dimethylaminopropoxy)benzylidene)-2,5-piperazinedione], the inhibition at 6.25 µM under setting [3] is 33%. For the same compound, the inhibition at 12.5 µM (12.5 μM, read-out: Degree of inhibition in PAI chromogenic substrate assay) worked out at 50%. For the same compound, under “25 μM, read-out: Degree of inhibition in PAI chromogenic substrate assay”, the inhibition at 25 µM was 57%. Also, the inhibition at 50 µM under setting [4] is 66%. Besides, the inhibition at 100 µM under setting [5] was found to be 68%.
As to `CN(C)CCCOc1ccc(/C=c2\[nH]c(=O)/c(=C/c3ccccc3Cl)[nH]c2=O)cc1` [Compound 5249, (3Z,6Z)-3-(2-Chlorobenzylidene)-6-(4-(3-dimethylaminopropoxy)benzylidene)-2,5-piperazinedione], under setting [1], the inhibition at 20 µM was determined as 10%. Under setting [2], the inhibition at 100 µM was 55%.
For `CN(C)CCOc1ccc(/C=c2\[nH]c(=O)/c(=C/c3c(Cl)cccc3Cl)[nH]c2=O)cc1` [Compound 1952], the inhibition at 6.25 µM under setting [3] is 0%. The Degree of inhibition in PAI chromogenic substrate assay runs as follows: (12.5 μM) 1%; (25 μM) 19%. Besides, the inhibition at 50 µM under setting [4] came out at 37%. The inhibition at 100 µM under setting [5] is 63%.
For `CN(C)CCCOc1ccc(/C=c2\[nH]c(=O)/c(=C/c3cccc(Cl)c3)[nH]c2=O)cc1` [Compound 5237], the IC50 came out at 4 µM. Under setting [1], the inhibition at 20 µM came to 72%. This compound also had a Degree of inhibition in PAI chromogenic substrate assay (100 μM (third part of Table 1), 100 µM) of 67%.
Turning to `CN(C)CCCOc1ccc(/C=c2\[nH]c(=O)/c(=C/c3ccc(C(N)=O)cc3)[nH]c2=O)cc1` [Compound 5254, 4-((3Z,6Z)-6-(4-(3-Dimethylaminopropoxy)benzylidene)-2,5-dioxo-3-piperazinylidene)methylbenzamide], the half-maximal inhibitory concentration (IC50) came out at 35 µM. The same compound had a Degree of inhibition in PAI chromogenic substrate assay (20 μM (third part of Table 1), 20 µM) of 76%. The inhibition at 100 µM under setting [2] turned out to be 79%.
Take `CN(C)CCCOc1ccc(/C=c2\[nH]c(=O)/c(=C/c3ccc(Cl)cc3)[nH]c2=O)cc1` [Compound 5233]: the IC50 worked out at 2.5 µM. Also, the inhibition at 20 µM under setting [1] stood at 47%. For the same compound, the inhibition at 100 µM under setting [2] was 50%.
As to `CCN(CC)CCOc1ccc(/C=c2\[nH]c(=O)/c(=C/c3ccccc3)[nH]c2=O)cc1` [Compound 5065.HCl], the inhibition at 20 µM under setting [1] turned out to be 12%. Also, the inhibition at 50 µM (50 μM (third part of Table 1), read-out: Degree of inhibition in PAI chromogenic substrate assay) amounted to 80%. The inhibition at 100 µM under setting [2] was 85%.
In turn, `CN(C)CCOc1ccc(/C=c2\[nH]c(=O)/c(=C/c3ccccc3)[nH]c2=O)c(OCCN(C)C)c1` [Compound 1984] registered a Degree of inhibition in PAI chromogenic substrate assay (12.5 μM) of 0%, a Degree of inhibition in PAI chromogenic substrate assay (25 μM) of 0%, a Degree of inhibition in PAI chromogenic substrate assay (50 μM) of 0% and a Degree of inhibition in PAI chromogenic substrate assay (100 μM) of 17%.
For `CN(C)CCOc1ccc(/C=c2\[nH]c(=O)/c(=C/c3ccccc3)[nH]c2=O)c(Cl)c1.Cl` [Compound 1960, (3Z,6Z)-6-Benzylidene-3-(2-chloro-4-(2-dimethylaminoethoxy)benzylidene)-2,5-piperazinedione, hydrochloride], the Degree of inhibition in PAI chromogenic substrate assay is 56% (6.25 μM), 63% (12.5 μM), 67% (25 μM) and 64% (50 μM). In addition, the inhibition at 100 µM under setting [5] worked out at 32%.
Turning to `CN(C)CCCOc1ccc(/C=c2\[nH]c(=O)/c(=C/c3ccc(F)cc3)[nH]c2=O)cc1` [Compound 5365, (3Z,6Z)-3-(4-(3-Dimethylaminopropoxy)benzylidene)-6-(4-fluorobenzylidene)-2,5-piperazinedione], the half-inhibitory concentration (IC50) stood at 6.5 µM.
